One assay relates to ASK. The assay can be described thus: Antimitotic activity in rat ASK cells at 0.32 to 20 ug/mL. The format is functional, cell-based.
For a further assay, the system named is Lu1. The experiment in a line: Cytotoxicity against human Lu1 cells. The format is functional. To be noted: read-out: ED50 (the source's name).
Another assay has as its system Col2. The experiment in a line: Cytotoxicity against human Col2 cells. The format is functional. To be noted: read-out: ED50 (the source's name).
The next assay deals with A-431. The experiment in a line: Cytotoxicity against human A431 cells. The format is functional. The following applies: read-out: ED50 (the source's name).
The test system of a further assay is KB. The experiment in a line: Cytotoxicity against human KB cells. The following applies: read-out: ED50 (the source's name). The format is functional.
A short description of assay [1]: Cytotoxicity against human vinblastine-resistant KBV1 cells. The class given is functional. The following applies: KB-V1, read-out: ED50 (the source's name).
Another assay has as its system ZR-75-1. The experiment in a line: Cytotoxicity against human ZR-75-1 cells. The format is functional. The following applies: read-out: ED50 (the source's name).
The next assay relates to P388. The assay can be described thus: Cytotoxicity against mouse P388 cells. The class given is functional. The following applies: read-out: ED50 (the source's name).
A further assay has as its system HT-1080. The experiment in a line: Cytotoxicity against human HT1080 cells. The following applies: read-out: ED50 (the source's name). The format is functional.
For the next assay, the system named is LNCaP. The assay can be described thus: Cytotoxicity against human LNCAP cells. The class given is functional. The following applies: read-out: ED50 (the source's name).
Assay [2] in a line: Cytotoxicity against human BC1 cells. The format is functional. The following applies: read-out: ED50 (the source's name).
The test system of another assay is SK-MEL-2. The assay can be described thus: Cytotoxicity against human SK-MEL-2 cells. The class given is functional. To be noted: read-out: ED50 (the source's name).

In brackets after ≈: the same amount, converted by molar mass. Activity calls are given as the source filed them. The rule behind the calls is not given here.

Take `C=C1CC[C@@H]2O[C@]2(C)CC[C@@H]2[C@@H]1CC2(C)C`: the result in the assay with ASK was inactive. For the same compound, the EC50 (with Lu1; in the assay on Col2; in the assay with A-431; in the assay on KB; in assay [1]; in the assay with ZR-75-1) was over 20 mg/L throughout. Also, the EC50 (in the assay on P388; in the assay on HT-1080; in the assay with LNCaP; in assay [2]; in the assay on SK-MEL-2) was over 20 mg/L in each case.
For `CC1(C)C(=O)CC[C@]2(C)[C@H]3CC=C4[C@@H]5C[C@](C)(C(=O)O)CC[C@]5(C)CC[C@@]4(C)[C@]3(C)CC[C@@H]12`, the EC50 is 10 mg/L (≈ 22 µM) with Lu1; over 20 mg/L with Col2; over 20 mg/L with A-431; 4.9 mg/L (≈ 10.8 µM) with KB; 8.5 mg/L (≈ 18.7 µM) in [1]; 5.2 mg/L (≈ 11.4 µM) with ZR-75-1. Moreover, the EC50 is 0.61 mg/L (≈ 1.34 µM) in the assay on P388; over 20 mg/L in the assay with HT-1080; 10 mg/L (≈ 22 µM) in the assay on LNCaP; over 20 mg/L in assay [2]; 12 mg/L (≈ 26.4 µM) in the assay with SK-MEL-2.
`C=C1CC[C@@H]2[C@H]([C@H]3[C@@H](C)CC[C@@H]13)C2(C)C`: the result with ASK was inactive. Besides, the EC50 (with Lu1; with Col2; in the assay on A-431; in the assay with KB; in [1]; with ZR-75-1) was over 20 mg/L each time. Moreover, the EC50 (with P388; in the assay on HT-1080; with LNCaP; in [2]; in the assay on SK-MEL-2) was over 20 mg/L throughout.
`CC1(C)[C@H](O)CC[C@]2(C)[C@H]3CC=C4[C@@H]5C[C@](C)(C(=O)O)CC[C@]5(C)CC[C@@]4(C)[C@]3(C)CC[C@@H]12` [KATONIC ACID]: the EC50 in the assay with Lu1 is 11 mg/L (≈ 24.1 µM); in the assay with Col2, over 20 mg/L; in the assay on A-431, 12 mg/L (≈ 26.3 µM); in the assay on KB, 8.3 mg/L (≈ 18.2 µM); in assay [1] it was 15 mg/L (≈ 32.8 µM); with ZR-75-1, 2.2 mg/L (≈ 4.82 µM). Moreover, the EC50 was determined as 0.11 mg/L (≈ 0.241 µM) in the assay on P388; 19 mg/L (≈ 41.6 µM) in the assay with HT-1080; 10 mg/L (≈ 21.9 µM) with LNCaP; 7.8 mg/L (≈ 17.1 µM) in [2]; 12 mg/L (≈ 26.3 µM) with SK-MEL-2.
`C=C(C)[C@@H]1CC[C@]2(C)[C@H](CC=C3[C@@H]4C[C@@](C)(C(=O)O)CC[C@]4(C)CC[C@]32C)[C@@]1(C)CCC(=O)O` [KOETJAPIC ACID]: the outcome with ASK was inactive. Further, the EC50 (in the assay on Lu1; with Col2; in the assay with A-431; with KB; in assay [1]; in the assay on ZR-75-1) was over 20 mg/L each time. In addition, the EC50 (in the assay with P388; in the assay with HT-1080; in the assay on LNCaP; in [2]; in the assay on SK-MEL-2) was over 20 mg/L in each case.
Regarding `C=C1CC[C@@H]2[C@H]([C@H]3[C@H]1CC[C@]3(C)O)C2(C)C` [SPATHULENOL], the outcome in the assay on ASK was inactive. The EC50 (in the assay on Lu1; in the assay on Col2; with A-431; in the assay on KB; in [1]; in the assay on ZR-75-1) was over 20 mg/L each time. Besides, the EC50 (in the assay on P388; in the assay with HT-1080; with LNCaP; in assay [2]; with SK-MEL-2) was over 20 mg/L throughout.
